Data from patent US12590062B2, “PD-1/PD-L1 inhibitors” (Gilead Sciences, Inc., priority 2017, dated 2026).
Like-named read-outs stand apart in the source and are kept apart here.

Molecular target: T1, PD-1/PD-L1 interaction (Homo sapiens, UniProt Q9NZQ7)
T1 construct: expressed in transfected cells; host or cells: CHO cells (aAPC-PD-L1) co-cultured with Jurkat cells overexpressing PD-1 and an NFAT-luciferase reporter
Experiment: PD-1/PD-L1 NFAT reporter co-culture assay
Assay type: cell-based
Experimental: PD-1/PD-L1 NEAT Reporter Assay:
Compounds were tested in afunctional co-culture reporter assay in which TCR-mediated NFAT activity is inhibited by the engagement of PD-1 with PD-L1. […] CHO cells expressing surface-bound anti-CD3 antibodies and PD-L1 (artificial antigen presenting cells, aAPC-PD-L1) were first seeded overnight. Jurkat cells overexpressing PD-1 and expressing a luciferase construct under NFAT control are diluted in RPMI assay medium (RPMI 1640 with 2% FBS), mixed with compounds, and immediately seeded on the monolayer of aAPC-PD-L1. The co-culture is then incubated for 6 hrs at 37° C. Luciferase activity is assessed by adding the ONE-Glo reagent and measuring luminescence with a plate reader. EC50 values are calculated from the fit of the dose-response curves to a four-parameter equation (Table 3).

[1] = Jurkat PD-1 NFAT-luciferase cells co-cultured with aAPC-PD-L1 CHO cells, 6 hrs at 37° C., read-out: EC50 NFAT Luciferase

T1 sequence (Q9NZQ7 19-290): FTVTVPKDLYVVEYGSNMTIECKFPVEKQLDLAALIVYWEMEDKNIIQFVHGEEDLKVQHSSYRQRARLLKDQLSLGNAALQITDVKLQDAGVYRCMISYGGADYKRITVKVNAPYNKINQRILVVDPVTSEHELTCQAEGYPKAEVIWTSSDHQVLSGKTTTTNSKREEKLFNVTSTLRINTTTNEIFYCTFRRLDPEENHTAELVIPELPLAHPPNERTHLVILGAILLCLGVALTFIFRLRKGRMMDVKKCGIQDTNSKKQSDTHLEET

COc1nc(OCc2cccc(-c3cccc(COc4nc(OC)c(C(CC(=O)O)N(C)C)cc4Cl)c3C)c2C)c(Cl)cc1C(CC(=O)O)N(C)C (mixture of isomers) [Example 236, 3,3′-((((2,2′-dimethyl-[1,1′-biphenyl]-3,3′-diyl)bis(methylene))bis(oxy))bis(5-chloro-2-methoxypyridine-6,3-diyl))bis(3-(dimethylamino)propanoic acid)]
EC50 [1]: 5030 nM

COc1nc(OCc2cccc(-c3cccc(COc4nc(OC)c(CN5CC(NC(C)=O)C5)cc4Cl)c3C)c2C)c(Cl)cc1CN1CC(NC(C)=O)C1 [Example 37, N,N′-((((((2,2′-dimethyl-[1,1′-biphenyl]-3,3′-diyl)bis(methylene))bis(oxy))bis(5-chloro-2-methoxypyridine-6,3-diyl))bis(methylene))bis(azetidine-1,3-diyl))diacetamide]
EC50 [1]: 894 nM

COc1nc(OCc2cccc(-c3cccc(COc4nc(OC)c(CN[C@@](C)(CO)C(=O)O)cc4Cl)c3C)c2C)c(Cl)cc1CN[C@@](C)(CO)C(=O)O [Example 44, (2S,2′S)-2,2′-((((((2,2′-dimethyl-[1,1′-biphenyl]-3,3′-diyl)bis(methylene))bis(oxy))bis(5-chloro-2-methoxypyridine-6,3-diyl))bis(methylene))bis(azanediyl))bis(3-hydroxy-2-methylpropanoic acid)]
EC50 [1]: 62 nM

COc1nc(OCc2cccc(-c3cccc(COc4nc(OC)c(CN[C@](C)(CO)C(=O)O)cc4Br)c3C)c2C)c(Br)cc1CN[C@](C)(CO)C(=O)O [Example 46, (2R,2′R)-2,2′-((((((2,2′-dimethyl-[1,1′-biphenyl]-3,3′-diyl)bis(methylene))bis(oxy))bis(5-bromo-2-methoxypyridine-6,3-diyl))bis(methylene))bis(azanediyl))bis(3-hydroxy-2-methylpropanoic acid)]
EC50 [1]: 87 nM

COc1nc(OCc2cccc(-c3cccc(COc4nc(OC)c(CN[C@@H](CO)C(=O)O)cc4Cl)c3C)c2C)c(Cl)cc1CN[C@@H](CO)C(=O)O [Example 50, (2S,2′S)-2,2′-((((((2,2′-dimethyl-[1,1′-biphenyl]-3,3′-diyl)bis(methylene))bis(oxy))bis(5-chloro-2-methoxypyridine-6,3-diyl))bis(methylene))bis(azanediyl))bis(3-hydroxypropanoic acid)]
EC50 [1]: 76 nM

COc1nc(OCc2cccc(-c3cccc(COc4nc(OC)c(CN[C@H](C(=O)O)[C@@H](C)O)cc4Cl)c3C)c2C)c(Cl)cc1CN[C@H](C(=O)O)[C@@H](C)O [Example 51, (2S,2′S,3R,3′R)-2,2′-((((((2,2′-dimethyl-[1,1′-biphenyl]-3,3′-diyl)bis(methylene))bis(oxy))bis(5-chloro-2-methoxypyridine-6,3-diyl))bis(methylene))bis(azanediyl))bis(3-hydroxybutanoic acid)]
EC50 [1]: 105 nM

COc1nc(OCc2cccc(-c3cccc(COc4nc(OC)c(CNC(CO)c5nn[nH]n5)cc4Cl)c3C)c2C)c(Cl)cc1CNC(CO)c1nn[nH]n1 (stereo not shown) [Example 52, 2,2′-((((((2,2′-dimethyl-[1,1′-biphenyl]-3,3′-diyl)bis(methylene))bis(oxy))bis(5-chloro-2-methoxypyridine-6,3-diyl))bis(methylene))bis(azanediyl))bis(2-(2H-tetrazol-5-yl)ethan-1-ol)]
EC50 [1]: 19800 nM

Cc1c(COc2cc(OCc3cncc(C#N)c3)c(CN3CCCC[C@H]3C(=O)O)cc2Cl)cccc1-c1cccc(COc2cc(OCc3cncc(C#N)c3)c(CN3CCCC[C@H]3C(=O)O)cc2Cl)c1C [Example 53, (2S,2′S)-1,1′-(((((2,2′-dimethyl-[1,1′-biphenyl]-3,3′-diyl)bis(methylene))bis(oxy))bis(5-chloro-2-((5-cyanopyridin-3-yl)methoxy)-4,1-phenylene))bis(methylene))bis(piperidine-2-carboxylic acid)]
EC50 [1]: 722 nM

CCOC(=O)C[C@H](O)CNCc1cc(C2CC2)c(OCc2cccc(-c3cccc(COc4nc(OC)c(CNC[C@@H](O)CC(=O)O)cc4C4CC4)c3C)c2C)nc1OC [Example 56, (S)-4-(((5-cyclopropyl-6-((3′-(((3-cyclopropyl-5-((((S)-4-ethoxy-2-hydroxy-4-oxobutyl)amino)methyl)-6-methoxypyridin-2-yl)oxy)methyl)-2,2′-dimethyl-[1,1′-biphenyl]-3-yl)methoxy)-2-methoxypyridin-3-yl)methyl)amino)-3-hydroxybutanoic acid]
EC50 [1]: ≥ 50000 nM

Cc1c(COc2cc(OCc3cccc(S(C)(=O)=O)c3)c(CN[C@@](C)(CO)C(=O)O)cc2Cl)cccc1-c1cccc(COc2cc(OCc3cccc(S(C)(=O)=O)c3)c(CN[C@@](C)(CO)C(=O)O)cc2Cl)c1C [Example 57, (2S,2′S)-2,2′-((((((2,2′-dimethyl-[1,1′-biphenyl]-3,3′-diyl)bis(methylene))bis(oxy))bis(5-chloro-2-((3-(methylsulfonyl)benzyl)oxy)-4,1-phenylene))bis(methylene))bis(azanediyl))bis(3-hydroxy-2-methylpropanoic acid)]
EC50 [1]: 351 nM

COc1nc(OCc2cccc(-c3cccc(COc4nc(OC)c(CN5CCc6[nH]cnc6C5C(=O)O)cc4Cl)c3C)c2C)c(Cl)cc1CN1CCc2[nH]cnc2C1C(=O)O (stereo not shown) [Example 62, 5,5′-(((((2,2′-dimethyl-[1,1′-biphenyl]-3,3′-diyl)bis(methylene))bis(oxy))bis(5-chloro-2-methoxypyridine-6,3-diyl))bis(methylene))bis(4,5,6,7-tetrahydro-1H-imidazo[4,5-c]pyridine-4-carboxylic acid)]
EC50 [1]: 19500 nM

COc1nc(OCc2cccc(-c3cccc(COc4nc(OC)c(CNCc5cc(O)no5)cc4Cl)c3C)c2C)c(Cl)cc1CNCc1cc(O)no1 [Example 63, 5,5′-(((((((2,2′-dimethyl-[1,1′-biphenyl]-3,3′-diyl)bis(methylene))bis(oxy))bis(5-chloro-2-methoxypyridine-6,3-diyl))bis(methylene))bis(azanediyl))bis(methylene))bis(isoxazol-3-ol)]
EC50: ≥ 50000 nM

COc1nc(OCc2cccc(-c3cccc(COc4nc(OC)c(CN[C@](C)(CO)C(=O)O)cc4C4CC4)c3C)c2C)c(C2CC2)cc1CN[C@](C)(CO)C(=O)O [Example 64, (2R,2′R)-2,2′-((((((2,2′-dimethyl-[1,1′-biphenyl]-3,3′-diyl)bis(methylene))bis(oxy))bis(5-cyclopropyl-2-methoxypyridine-6,3-diyl))bis(methylene))bis(azanediyl))bis(3-hydroxy-2-methylpropanoic acid)]
EC50 [1]: 9780 nM

COc1nc(OCc2cccc(-c3cccc(COc4nc(OC)c(CN5CCC5C(N)=O)cc4Cl)c3C)c2C)c(Cl)cc1CN1CCC1C(N)=O (stereo not shown) [Example 65, 1,1′-(((((2,2′-dimethyl-[1,1′-biphenyl]-3,3′-diyl)bis(methylene))bis(oxy))bis(5-chloro-2-methoxypyridine-6,3-diyl))bis(methylene))bis(azetidine-2-carboxamide)]
EC50 [1]: 3350 nM

COc1nc(OCc2cccc(-c3cccc(COc4nc(OC)c(CN[C@@H]5CCC[C@H]5C(=O)O)cc4Cl)c3C)c2C)c(Cl)cc1CN[C@@H]1CCC[C@H]1C(=O)O [Example 75, (1R,1′R,2R,2′R)-2,2′-((((((2,2′-dimethyl-[1,1′-biphenyl]-3,3′-diyl)bis(methylene))bis(oxy))bis(5-chloro-2-methoxypyridine-6,3-diyl))bis(methylene))bis(azanediyl))bis(cyclopentane-1-carboxylic acid)]
EC50 [1]: 384 nM

COc1nc(OCc2cccc(-c3cccc(COc4nc(OC)c(CNCC(C)(C)C(=O)O)cc4Cl)c3C)c2C)c(Cl)cc1CNCC(C)(C)C(=O)O [Example 77, 3,3′-((((((2,2′-dimethyl-[1,1′-biphenyl]-3,3′-diyl)bis(methylene))bis(oxy))bis(5-chloro-2-methoxypyridine-6,3-diyl))bis(methylene))bis(azanediyl))bis(2,2-dimethylpropanoic acid)]
EC50 [1]: ≥ 50000 nM

COc1nc(OCc2cccc(-c3cccc(COc4nc(OC)c(CN[C@@H]5CCC[C@@H]5C(=O)O)cc4Cl)c3C)c2C)c(Cl)cc1CN[C@@H]1CCC[C@@H]1C(=O)O [Example 79, (1S,1′S,2R,2′R)-2,2′-((((((2,2′-dimethyl-[1,1′-biphenyl]-3,3′-diyl)bis(methylene))bis(oxy))bis(5-chloro-2-methoxypyridine-6,3-diyl))bis(methylene))bis(azanediyl))bis(cyclopentane-1-carboxylicacid)]
EC50 [1]: 381 nM

COc1nc(OCc2cccc(-c3cccc(COc4nc(OC)c(CN[C@H]5CCCC[C@@H]5C(=O)O)cc4Cl)c3C)c2C)c(Cl)cc1CN[C@H]1CCCC[C@@H]1C(=O)O [Example 80, (1S,1′S,2S,2′S)-2,2′-((((((2,2′-dimethyl-[1,1′-biphenyl]-3,3′-diyl)bis(methylene))bis(oxy))bis(5-chloro-2-methoxypyridine-6,3-diyl))bis(methylene))bis(azanediyl))bis(cyclohexane-1-carboxylic acid)]
EC50 [1]: ≥ 50000 nM

COc1nc(OCc2cccc(-c3cccc(COc4nc(OC)c(CNC(C)(C)CC(=O)O)cc4Cl)c3C)c2C)c(Cl)cc1CNC(C)(C)CC(=O)O [Example 82, 3,3′-((((((2,2′-dimethyl-[1,1′-biphenyl]-3,3′-diyl)bis(methylene))bis(oxy))bis(5-chloro-2-methoxypyridine-6,3-diyl))bis(methylene))bis(azanediyl))bis(3-methylbutanoic acid)]
EC50 [1]: 1710 nM
